One data set relates to Pyricularia oryzae. Kind of data set: microbe, parasite or virus in culture. It counts as cell-based. Particulars: 120 h, read-out: efficacy (inhibition of fungal growth).
Data set [1] relates to Colletotrichum lindemuthianum. Kind of data set: In vitro cell test on Colletotrichum lindemuthianum. The note with it: 144 h, 20 ppm of active ingredient, 6 days incubation, spectrometric measurement of mycelium growth, read-out: efficacy (inhibition of fungal growth). It counts as cell-based. How it is done: (§1) Example C: In Vitro Cell Test on Colletotrichum lindemuthianum Solvent: dimethyl sulfoxide Culture medium: 14.6 g anhydrous D-glucose (VWR), 7.1 g mycological peptone (Oxoid), 1.4 g granulated yeast extract (Merck), QSP 1 liter Inoculum: spore suspension The tested compounds were solubilized in dimethyl sulfoxide and the solution used to prepare the required range of concentrations. […] A spore suspension of Colletotrichum lindemuthianum was prepared and diluted to the desired spore density. Compounds were evaluated for their ability to inhibit spores germination and mycelium growth in liquid culture assay. The compounds were added in the desired concentration to the culture medium with spores. After 6 days incubation, fungi-toxicity of compounds was determined by spectrometric measurement of mycelium growth. Inhibition of fungal growth was determined by comparing the absorbance values in wells containing the compounds with the absorbance in control wells without fungicides.

The conditions of data set [2]: for logP: HPLC, C 18 reversed phase, 40° C., 0.1% aqueous formic acid and acetonitrile, gradient 10% to 95% acetonitrile.
Method: temperature: 40° C.; mobile phases: 0.1% aqueous formic acid and acetonitrile; linear gradient from 10% acetonitrile to 95% acetonitrile;
Calibration was carried out using unbranched alkan-2-ones (comprising 3 to 16 carbon atoms) with known logP values (determination of the logP values by the retention times using linear interpolation between two successive alkanones). lambda-max-values were determined using UV-spectra from 200 nm to 400 nm and the peak values of the chromatographic signals.
In another data set the test system is Alternaria alternate. Kind of data set: In vitro cell test on Alternaria alternate. Format: cell-based. The note with it: 120 h, 20 ppm of active ingredient, 5 days incubation, spectrometric measurement of mycelium growth, read-out: efficacy (inhibition of fungal growth). The method, then: as §1, with “Example B:” for “Example C:”, “on Alternaria alternate” for “on Colletotrichum lindemuthianum”, “(Merck), […]” for “(Merck), QSP 1 liter”, “of Alternaria alternate” for “of Colletotrichum lindemuthianum”, “inhibit spore” for “inhibit spores”, “After 5” for “After 6”

Results on five compounds are retold here after patent publication US20200079801A1, “TRISUBSTITUTEDSILYLBENZYLBENZIMIDAZOLES AND ANALOGUES” (Bayer Aktiengesellschaft, priority 2017, published 2020).

For orientation: inhibition means how much of the control response was suppressed. As a reminder, the chromatographic logP is a lipophilicity value derived from retention on a column. High values mean higher lipophilicity, low ones lower lipophilicity. For `C[Si](C)(c1ccccc1)c1ccccc1Cn1cnc2ccccc21` [I.01, 1-{2-[dimethyl(phenyl)silyl]benzyl}-1H-benzimidazole], the figures for the inhibition at 20 ppm (in the data set on Pyricularia oryzae; in data set [1]; in the data set on Alternaria alternate) were 90 to 100%, 90 to 100% and 80 to 89%, respectively. This compound gave a chromatographic logP in data set [2] of 2.57.

What is called logP is the decadic logarithm of the partition coefficient of the neutral form, usually between octanol and water. A high value points to a more lipophilic compound. `C[Si](C)(c1ccc(-c2ccccc2)cc1)c1ccccc1Cn1cnc2ccccc21` [I.40] yielded a logP in data set [2] of 3.39.

Turning to `Cc1nc2ccccc2n1Cc1ccccc1[Si](C)(C)c1ccc(-c2ccccc2)cc1` [I.46], the logP in data set [2] came out at 3.18.

In data set [2], `Cc1cc2ncn(Cc3ccccc3[Si](C)(C)c3ccc(-c4ccccc4)cc3)c2cc1C` [I.48] yielded a logP of 3.33.

In turn, `Cc1cc2nc(C)n(Cc3ccccc3[Si](C)(C)c3ccc(-c4ccccc4)cc3)c2cc1C` [I.53] yielded a logP in data set [2] of 3.29.
